Data taken from patent US9526705B2, “Lipidated glycosaminoglycan particles and their use in drug and gene delivery for diagnosis and therapy” (Tel-Aviv University Future Technology Development L.P., priority 2001, dated 2016).
Each block holds one compound with its values, some of them ahead of it.

Experiments:
[1] = system: MCF7 cells (human breast carcinoma); experiment: BSA-FITC entry into cells, confocal microscopy; format: cell-based; conditions: MCF7, 3.3 mg/ml, 25° C., 60 minutes
Description: Bovine serum albumin tagged with the fluorescent marker FITC (BSA-FITC) in both free form and entrapped in the DDS was used to determine whether DDS can also induce the entry of large macromolecules into cells. The free and the DDS-entrapped BSA-FITC were incubated at 25° C. for 60 minutes with confluent monolayers of MCF7 cells (originating from human breast carcinoma). MCF-7 cells are reported to have two known receptors for hyaluronic acid—ICAM-1 and CD44. The protein/DDS systems were cleaned from the free protein. The free and the entrapped protein were at the same concentration: 3.3 mg/ml. At the end of the incubation the cells were viewed by means of confocal microscopy.

[2] = i.v. tail vein, MMC 2 mg/kg
Description: Female BALB/c mice which were 8 weeks old at initiation of the experiment were used. […] The MMC dose was 2 mg/kg body, in both free and DDS formulations and the DDS dose was 1 mg/ml.
(§1) Treatments were given on days 5, 12 and 19. Administration was by injection into the tail vein. All injected volumes were 0.1 ml.
At selected periods post-injection, animals receiving drug-containing formulations were bled, and samples were treated according to established protocols. MMC concentration was determined by HPLC assay.

[3] = system: C-26 cells (mouse colon carcinoma); conditions: Run 1
Description: Female BALB/c mice which were 8 weeks old at initiation of the experiment were used. The tumor model employed was C-26 cells (originating from mouse colon carcinoma) injected subcutaneously into the right hind footpad. […] The MMC dose was 2 mg/kg body, in both free and DDS formulations and the DDS dose was 1 mg/ml.
To provide the tumor, C-26 cells were grown in cell culture flasks. At day zero, the cells were harvested, washed several times, counted and immediately injected. The injected dose was 8×10^5 cells in 30 μl.
as §1
Parameters measured for Run 1 were retention in circulation, tumor onset, tumor volume, survival. Parameters measured for Run 2 were survival.

[4] = system: cell line C26 (mouse colon carcinoma); conditions: 4 hours exposure, viable cells 24 hours from start, MMC 30 and 50 μg/ml
Description: This is an inherent multidrug resistant (MDR) line originating from mouse colon carcinoma.

B16F10 (mouse melanoma) = experiment: Tumor metastasis model: lung metastases after i.v. B16F10 cells; format: in vivo, C57BL/6 mice; conditions: day 21
Description: C57BL/6 female mice were used, which were 12 weeks old at initiation of the experiment. […] The DDS system was LLG in the form of nano particles. The test system was MMC formulated in the novel DDS of the present invention, denoted MMC/DDS.
Group 1 is a control group of healthy mice that were not inoculated with tumor cells.
B16F10 cells were grown in cell culture flasks. […] The injected dose was 5×10^5 cells in 50 μl PBS.
Treatments were given on days 1, 5 and 9. […] All injected volumes were 0.1 ml. The experiment was terminated 21 days post tumor inoculation. The animals were sacrificed, and the lungs were removed, weighed, and fixed in Bouin's solution. Lung weight increase was calculated using the following formula: Lung weight increase(%)=100×(tumor lung weight−normal lung weight)/normal lung weight Surface metastases were counted by an expert using a dissecting microscope.
Quantitative evaluation of metastases in the lungs can be performed by two independent measurements: actual counting of the metastases in excised and properly fixed lungs; and/or measurement of the increase in the weight of the lungs due to the metastases in the animals injected with tumor cells. Both techniques were implemented in the present study.

[5] = Efficiency of entrapment in gagomers (absorbency, ELISA plate reader); format: physicochemical
Description: The efficiency of entrapment of drugs or other bioactive agents in the gagomers and the kinetics of drug efflux for small molecular weight drugs were determined using absorbency in an ELISA plate reader, with appropriate wavelengths for each given entrapped entity.

[6] = calculated from efflux rate constant, 50 minutes incubation
Description: The independent variable is time. The dependent variable (f) is the percentage of drug released at time=t with respect to the total drug in the system at time t=0.

Compound: free BSA-FITC: Bovine serum albumin tagged with the fluorescent marker FITC, free form
protein entry into the cells [1]: Some of the protein gained entry into the cell
protein entry into the nucleus [1]: not inside the nucleus

Compound: CO[C@@]12[C@H](COC(N)=O)C3=C(C(=O)C(C)=C(N)C3=O)N1C[C@@H]1N[C@@H]12 [Mitomycin C, mitomycin C]
retention in circulation [2]: disappears very quickly from the circulation
increase in tumor volume / tumor growth rate ([3]; 3 i.v. doses): not much different than in the saline group
day on which tumor was first detected ([3]; treatments on days 5, 12 and 19, MMC 2 mg/kg): 7 days
cell death (compared to untreated control) [4]: under 15%
increase in lung weight, in words (B16F10 (mouse melanoma); saline group close to 400%): almost the same
number of lung metastases versus saline group (B16F10 (mouse melanoma); lungs, MMC 5 mg/Kg): no statistical difference

Encapsulation Efficiency (%) By Kinetics ([5]; Micro-gagomers): 30.5 ± 1.9%
Encapsulation Efficiency (%) By Thermodynamics ([5]; Micro-gagomers): 39.3 ± 3.9%
Encapsulation Efficiency (%) By Kinetics ([5]; Nano-gagomers): 47.1 ± 1.5%
Encapsulation Efficiency (%) By Thermodynamics ([5]; Nano-gagomers): 47.4 ± 0.3%
Compound: O=C(N[C@H](CO)[C@H](O)c1ccc([N+](=O)[O-])cc1)C(Cl)Cl [Chloramphenicol]

Compound: COc1cccc2c1C(=O)c1c(O)c3c(c(O)c1C2=O)C[C@@](O)(C(=O)CO)C[C@@H]3O[C@H]1C[C@H](N)[C@H](O)[C@H](C)O1 [Doxorubicin, doxorubicin]
Encapsulation Efficiency (%) By Kinetics ([5]; Micro-gagomers): 50.2 ± 1.2%
Encapsulation Efficiency (%) By Thermodynamics ([5]; Micro-gagomers): 52.4 ± 6.3%
Encapsulation Efficiency (%) By Kinetics ([5]; Nano-gagomers): 53.6 ± 0.9%
Encapsulation Efficiency (%) By Thermodynamics ([5]; Nano-gagomers): 57.0 ± 3.7%

Compound: α-Interferon
Encapsulation Efficiency (%) ([5]; DDS microparticles, insulin concentration 10 mg/ml): 72.5 ± 3.7%

Compound: CC[n+]1c(-c2ccccc2)c2cc(N)ccc2c2ccc(N)cc21 [EtBr, ethidium bromide]
efflux of the entrapped marker in the course of the incubation [6]: ≤ 2%
